Test results reported in the supplement of paper PMC11061612.

Tests used:
Assay in all cases: Bliss excess, mean over the matrix (fraction); higher = more synergy
[1] = tested on: CTV-1 (T-Lymphoblastic Leukemia)
Summary of the method: (§1)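 After 24 hours at 37°C and 5% CO2 in 1536-well plates, cells in DMEM/F12 or RPMI plus 10% FBS received two-drug dose matrices for 72 hours. Viability came from CellTiter-Glo 2.0 luminescence and was scaled as inhibition, anchored at 0 by vehicle wells and at 1 by blank wells. Combination Emax is taken as the second-highest inhibition in the matrix, and Bliss excess as the observed combination effect less EA + EB − EA·EB, with EA and EB the single-agent effects.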

[2] = tested on: SW1088 (Low Grade Glioma)
Summary of the method: as §1

RH-1 (Ewing's Sarcoma) = tested on: RH-1 (Ewing's Sarcoma)
Summary of the method: as §1

[3] = tested on: LU-99A (Non-Small Cell Lung Carcinoma)
Summary of the method: as §1

SK-N-FI (Neuroblastoma) = tested on: SK-N-FI (Neuroblastoma)
Summary of the method: as §1

[4] = tested on: HCC2157 (Breast Carcinoma)
Summary of the method: as §1

NCI-H2595 (Mesothelioma) = tested on: NCI-H2595 (Mesothelioma)
Summary of the method: as §1

[5] = tested on: IHH-4 (Thyroid Gland Carcinoma)
Summary of the method: as §1

[6] = tested on: SUIT-2 (Pancreatic Carcinoma)
Summary of the method: as §1

DSH1 (Bladder Carcinoma) = tested on: DSH1 (Bladder Carcinoma)
Summary of the method: as §1

[7] = tested on: U-266 (Plasma Cell Myeloma)
Summary of the method: as §1

[8] = tested on: HT-29 (Colorectal Carcinoma)
Summary of the method: as §1

[9] = tested on: TE-5 (Esophageal Squamous Cell Carcinoma)
Summary of the method: as §1

[10] = tested on: NCI-H1299 (Non-Small Cell Lung Carcinoma)
Summary of the method: as §1

[11] = tested on: NCI-H1781 (Lung Adenocarcinoma)
Summary of the method: as §1

[12] = tested on: LS-513 (Colorectal Carcinoma)
Summary of the method: as §1

[13] = tested on: DMS-273 (Small Cell Lung Carcinoma)
Summary of the method: as §1

[14] = tested on: DOV13 (Ovarian Carcinoma)
Summary of the method: as §1

[15] = tested on: SW756 (Cervical Carcinoma)
Summary of the method: as §1

[16] = tested on: COR-L23 (Non-Small Cell Lung Carcinoma)
Summary of the method: as §1

SMILES	Bliss excess [1]	Bliss excess [2]	Bliss excess (RH-1 (Ewing's Sarcoma))	Bliss excess [3]	Bliss excess (SK-N-FI (Neuroblastoma))	Bliss excess [4]	Bliss excess (NCI-H2595 (Mesothelioma))	Bliss excess [5]	Bliss excess [6]	Bliss excess (DSH1 (Bladder Carcinoma))	Bliss excess [7]	Bliss excess [8]	Bliss excess [9]	Bliss excess [10]	Bliss excess [11]	Bliss excess [12]	Bliss excess [13]	Bliss excess [14]	Bliss excess [15]	Bliss excess [16]
Cc1c2c(nn1C)CSCc1cc(n(C)n1)CSc1cc(c3ccccc3c1)OCCCc1c(C(=O)O)n(C)c3c-2c(Cl)ccc13 [AZD5991] + C1CN(CCC1(C(=O)N[C@@H](CCO)C2=CC=C(C=C2)Cl)N)C3=NC=NC4=C3C=CN4 [Capivasertib] (first compound max 1 µM, 7x7, partner max 3 µM)	0.0027	-0.0562	0.0157	-0.0247	0.0211	-0.0488	0.0093	0.0037	-0.0304	0.001	0.0662	-0.0114	0.0141	-0.0174	0.0079	-0.0343	-0.0524	0.0055	-0.023	-0.0161
CN(C)CCCOc1ccc(-c2ccc3ncc4c(c3c2)n(C2CCOCC2)c(=O)n4C)cn1 [AZD0156] + C[C@@H]1COCCN1C2=NC(=NC(=C2)C3(CC3)[S@](=N)(=O)C)C4=C5C=CNC5=NC=C4 [AZD6738] (first compound max 1 µM, 7x7, partner max 10 µM)	-0.0115	-0.0113	0.0731	-0.0423	0.0055	0.0548	-0.0438	0.0537	0.0103	0.0773	-0.117	-0.0211	-0.0609	0.0234	-0.0229	0.0068	0.0084	-0.0395	-0.0006	0.045
NC1(C(=O)N[C@@H](CCO)c2ccc(Cl)cc2)CCN(c2ncnc3[nH]ccc23)CC1 [Capivasertib] + C[C@@H]1COCCN1C2=NC(=NC(=C2)C3(CC3)[S@](=N)(=O)C)C4=C5C=CNC5=NC=C4 [AZD6738] (first compound max 10 µM, 7x7, partner max 10 µM)	0.0489	-0.0619	-0.0098	-0.0059	-0.0529	-0.0175	-0.0114	0.0028	-0.0351	-0.064	-0.0793	-0.0396	-0.0345	-0.0309	-0.032	-0.0697	-0.0377	-0.062	0.0407	-0.0358
COc1nnc2ccc(N3CCC(c4ccc(OCCN5CCN(C)C(=O)[C@H]5C)cc4)CC3)nn12 [AZD5153] + C=CCn1c(=O)c2cnc(Nc3ccc(N4CCN(C)CC4)cc3)nc2n1-c1cccc(C(C)(C)O)n1 [AZD1775] (first compound max 1 µM, partner max 1 µM)	0.0151	-0.0364	-0.0406	-0.02	-0.105	-0.0734	-0.0353	-0.0294	0.0152	-0.132	-0.0922	-0.0532	-0.0148	-0.0278	-0.0744	-0.0603	-0.0377	-0.0561	-0.05	-0.0459
C=CCn1c(=O)c2cnc(Nc3ccc(N4CCN(C)CC4)cc3)nc2n1-c1cccc(C(C)(C)O)n1 [AZD1775] + O=C(c1cc(Cc2n[nH]c(=O)c3ccccc23)ccc1F)N1CCN(C(=O)C2CC2)CC1 [Olaparib] (first compound max 1 µM, partner max 10 µM)	-0.0239	0.0045	0.044	-0.0603	-0.0569	-0.0187	-0.0218	0.0194	-0.0049	-0.0534	-0.0775	-0.0368	-0.0488	-0.0048	-0.0451	0.0008	-0.0334	-0.0389	-0.0416	-0.0182
COc1cc2ncnc(Nc3ccc(F)c(Cl)c3)c2cc1OCCCN1CCOCC1 [Gefitinib] + CC(C)n1c(=O)n(C)c2cnc3cc(F)c(-c4ccc(OCCCN5CCCCC5)nc4)cc3c21 [AZD1390] (first compound max 10 µM, 7x7, partner max 0.3 µM)	-0.0468	-0.0688	-0.0399	–	-0.0391	-0.0136	-0.0596	-0.043	-0.0527	-0.0351	-0.0442	-0.0512	-0.045	-0.0561	-0.0801	-0.0362	-0.0068	-0.1	-0.0551	-0.069
C[C@@H](c1ccc2nccn2c1)n1nnc2ncc(-c3cnn(C)c3)nc21 [Savolitinib] + CN(CC[C@H](CSC1=CC=CC=C1)NC2=C(C=C(C=C2)S(=O)(=O)NC(=O)C3=CC=C(C=C3)N4CCC(CC4)[C@H](C5=CC=CC=C5C6=CC=C(C=C6)Cl)O)S(=O)(=O)C(F)(F)F)CCO [AZD4320] (first compound max 1 µM, 7x7, partner max 1 µM)	-0.0887	–	0.0096	-0.0558	–	-0.0331	–	–	0.0046	–	–	-0.0245	–	–	-0.053	–	-0.0126	–	-0.0319	-0.0349
Cc1c2c(nn1C)CSCc1cc(n(C)n1)CSc1cc(c3ccccc3c1)OCCCc1c(C(=O)O)n(C)c3c-2c(Cl)ccc13 [AZD5991] + Cc1cc2ncnn2cc1Nc1ncc2c(n1)n(C1CCOCC1)c(=O)n2C [AZD7648] (first compound max 1 µM, 7x7, partner max 10 µM)	-0.0169	-0.0665	-0.0036	-0.0397	-0.0289	0.0283	0.0034	-0.0281	–	-0.095	0.0078	0.0049	-0.0257	-0.0436	-0.105	0.002	-0.0113	-0.0025	-0.0367	-0.0076
Cc1c2c(nn1C)CSCc1cc(n(C)n1)CSc1cc(c3ccccc3c1)OCCCc1c(C(=O)O)n(C)c3c-2c(Cl)ccc13 [AZD5991] + C[C@@H](Nc1cc(F)cc(F)c1)c1cc(C(=O)N(C)C)cc2c(=O)cc(N3CCOCC3)oc12 [AZD8186] (first compound max 1 µM, 7x7, partner max 3 µM)	-0.0144	0.0098	–	-0.0534	-0.024	0.0105	0.0369	0.0184	-0.015	-0.0603	-0.0496	-0.012	-0.0172	-0.0181	0.0182	-0.0331	-0.0094	0.0294	0.0162	-0.032
CCc1c2c(nc3ccc(O)cc13)-c1cc3c(c(=O)n1C2)COC(=O)[C@]3(O)CC [SN-38] + O=C(c1cc(Cc2n[nH]c(=O)c3ccccc23)ccc1F)N1CCN(C(=O)C2CC2)CC1 [Olaparib] (first compound max 0.3 µM, 7x7, partner max 10 µM)	0.0665	0.0683	0.102	0.0452	0.0478	–	0.0184	0.0356	-0.0211	0.0007	0.0526	0.0396	0.0521	0.129	0.0788	0.0731	0.0129	0.0456	-0.0109	0.0328
CC(=O)c1c(C)c2cnc(Nc3ccc(N4CCNCC4)cn3)nc2n(C2CCCC2)c1=O [Palbociclib] + CN(CC[C@H](CSC1=CC=CC=C1)NC2=C(C=C(C=C2)S(=O)(=O)NC(=O)C3=CC=C(C=C3)N4CCC(CC4)[C@H](C5=CC=CC=C5C6=CC=C(C=C6)Cl)O)S(=O)(=O)C(F)(F)F)CCO [AZD4320] (first compound max 10 µM, 7x7, partner max 1 µM)	-0.0365	–	-0.0674	-0.119	–	0.0149	–	–	-0.0937	–	–	-0.0271	–	–	-0.0811	–	-0.106	–	-0.0883	-0.0608
COc1nnc2ccc(N3CCC(c4ccc(OCCN5CCN(C)C(=O)[C@H]5C)cc4)CC3)nn12 [AZD5153] + CN(CC[C@H](CSC1=CC=CC=C1)NC2=C(C=C(C=C2)S(=O)(=O)NC(=O)C3=CC=C(C=C3)N4CCC(CC4)[C@H](C5=CC=CC=C5C6=CC=C(C=C6)Cl)O)S(=O)(=O)C(F)(F)F)CCO [AZD4320] (first compound max 1 µM, 7x7, partner max 1 µM)	0.0057	–	-0.0001	0.128	–	0.0047	–	–	0.005	–	–	-0.0111	–	–	-0.0212	–	0.0043	–	0.0196	-0.0014
CN(CCO)CC[C@H](CSc1ccccc1)Nc1ccc(S(=O)(=O)NC(=O)c2ccc(N3CCC([C@@H](O)c4ccccc4-c4ccc(Cl)cc4)CC3)cc2)cc1S(=O)(=O)C(F)(F)F [AZD4320] + Cn1cnc2c(F)c(Nc3ccc(Br)cc3Cl)c(C(=O)NOCCO)cc21 [Selumetinib] (first compound max 1 µM, 7x7, partner max 3 µM)	0.0708	0.0246	0.0015	0.0878	0.0296	0.0119	0.04	0.0185	0.0126	-0.0405	0.13	0.02	0.0377	0.0505	0.0131	–	-0.0768	-0.114	0.0022	0.0645
